US6441036B1 (priority 1998, dated 2002)

Columns and labels:
[1] = 28 days toxicity study in dogs (GLP); format: in vivo
Text: A 28 days toxicity study in dogs according to GLP guide-lines has been performed by Corning Hazleton (Europe), England. […] Some lipid related parameters were lowered in the animals given high dosages. This is consistent with the pharmacological activity of TTA.

[2] = Fatty acid composition in liver and plasma of obese Zucker fa/fa rats (Example 19); format: in vivo; conditions: 300 mg/day/kg by gavage once daily for 10 days
Description: Male obese Zucker fa/fa rats, weighing 100 g at the start of the experiment, were housed in pairs in metal wire cages in a room maintained at 12 h light-dark cycles and a constant temperature of 20±° C. The animals were acclimatised for at least one week under these conditions before the start of the experiment.
TTA and palmitic acid (control), was suspended in 0.5% (w/v) carboxymethyl cellulose (CMC) and administered at a dose of 300 mg/day/kg body weight, by gastric intubation (gavage) once daily for 10 days. The rats were fasted for 2 hours before termination of the experiment. Blood and organs were collected. Total lipids were extracted from liver and plasma. The lipids were evaporated, saponified and esterified prior to separation using a Carlo Erba 2900 gas-chromatograph.

[3] = Plasma free fatty acids and ketone bodies in old obese Zucker rats; format: in vivo, obese Zucker (fa/fa) rats; conditions: 21 week-old male rats, standard diet enriched with 0.15% TTA for 15 days; means ± SD
Description: (§1) Glucose (GLU, Boehringer Mannheim, Germany), free fatty acids (NEFA, C ACS-ACOD kit; Wako Chemicals, Dalton, USA) and b-hydroxybutyrate (310-A kit; Sigma Diagnostics Inc., St. Louis, USA) concentrations were measured using enzymatic methods. Insulin concentrations were determined with radioimmunoassay by (CIS bio International, Gif sur Yvette, France) using rat insulin as standard in the Zucker rats. In the Wistar Charles River rats, plasma glucose concentrations were measured with the aid of Beckman Glucose Analyzer (Fullerton, Calif., USA). Plasma insulin levels were measured using a RIA kit from Linco Research Inc. (St. Charles, Mo., USA). Phospholipids were measured by the enzymatic method of bioMérieux, Marcy-l{grave over ( )}Etoile, France, Triacylglycerol by the Technicon Method no. SA4-0324L90, USA and Cholesterol by the Technicon Method no. SA4-0305L90, USA.
Data are means±SD of six animals in both the control- and the experimental group. Free fatty acids (FFA) and ketone bodies (4-hydroxy butyrate)were measured in plasma and 3-hydroxy-3-methylglutaryl (HMG)—CoA synthase activities were measured in mitochondrial fractions prepared from the liver from 21 week-old male obese Zucker (fa/fa) rats given either a standard diet (control) or a standard diet enriched with 0.15% TTA for 15 days.

[4] = Body weight gain, liver and adipose tissue weight in young obese Zucker rats (Example 9); format: in vivo, obese Zucker (fa/fa) rats; conditions: 5 week-old male rats, TTA 300/kg/day in 0.5% CMC, 11 days; means ± SD
Description: The obese Zucker (fa/fa) rats used in this study were bred at the U 465 INSERM animal facility from pairs originally provided by the Harriet G. Bird Laboratory (Stow, Mass., USA). Unless otherwise stated, the animals were maintained under a constant light-dark cycle (light from 7:00 a.m. to 7:00 p.m.) at 21±1° C. and were given free access to food and water. Three rats were housed per cage. Weight gains were recorded daily.
5 week-old male obese Zucker (fa/fa) rats fed with TTA, 300/kg/day suspended in 0.5% CMC. Control animals received CMC only. Following 11 days of treatment, rats were killed by cervical dislocation, liver and epididymal adipose tissue pads were dissected out and weighed. Data are means±SD of 6 animals in the control- and 6 animals in the experimental group.

[5] = Fatty acid content after 12 weeks administration to rats; format: in vivo; conditions: administration to rats for 12 weeks
[6] = Euglycemic hyperinsulinemic clamp, high fat diet induced insulin resistance (Example 12); format: in vivo, Wistar Charles River rats; conditions: HF diet supplemented with TTA, 21 days; 45-90 minutes of clamp
Description: After 21 days on their respective diets (see above), the rats were anaesthetised by injection of xylazine hydrochloride (Rometar SPOFA, Prague, Czech Republic; 10 mg/ml) and ketamine hydrochloride (Narkamon SPOFA, Prague, Czech republic; 75 mg/ml), and fitted with chronic carotid artery and jugular vein cannulas as described by Koopmans et al. (Koopmans, S. J., et al., Biochim Biophys Acta, 1115, […] 1992.). The cannulated rats were allowed to recover for two days after surgery before the clamping studies which were carried out according to Kraegen et al. (Kraegen, E. W., et al., Am J Physiol, 248, E353-E362 1983.). Thus, on the third day after surgery, unrestrained conscious rats were given a continuous infusion of porcine insulin (Actrapid, Novo Nordisk, Denmark) at a dose of 6.4mU per kg per min to achieve plasma insulin levels in the upper physiological range. The arterial blood glucose concentration was clamped at the basal fasting level, by variable infusion of a 30% w/v glucose solution (Leciva, Prague, Czech Republic). […]
Rats weighing 330±20 g were divided into 3 groups (n=9) and fed with three different diets: standard rat chow, high fat diet (HF) and HF supplemented with TTA. […] The glucose infusion rate (GIR) was determined from the period of the clamp where glycemia got stabilised, i.e. between 45-90 minutes after clamp commencement. […]

[7] = High fat diet induced hyperinsulinemia (Example 11); format: in vivo, Wistar Charles River rats; conditions: HF diet supplemented with TTA, 21 days, overnight fast
Description: as §1
Rats weighing 280-360 g were divided into 3 groups (n=6) and fed with three different diets: standard rat chow, high fat diet (HF) and HF supplemented with TTA. After 21 days on their respective diets, blood was collected after an overnight fast from the tail vein. The data are shown as mean±SEM. Results were analysed by ANOVA and different letters denote statistical significance (p<0.05).

Substance: Tetradecylthioacetic acid [TTA]
- Lipid related parameters ([1]; animals given high dosages): lowered
- Body weight ([1]; dose level of 500 mg/kg/day): body weight loss
- Evidence of toxicity ([1]; dose levels of 50 or 500 mg/day/kg, 28 days): no evidence of toxicity
- Tolerability ([1]; oral administration, dose levels up to 500 mg/kg/day, 28 days): generally well tolerated
- Fatty acid composition in liver: Monounsaturated tetradecylthioacetic acid [2]: 1.1 ± 0.2 % of total
- Fatty acid composition in liver: Oleic acid [2]: 14.9 ± 1.0 % of total
- Fatty acid composition in plasma: Monounsaturated tetradecylthioacetic acid [2]: 0.2 ± 0.1 % of total
- Fatty acid composition in plasma: Oleic acid [2]: 22.1 ± 0.5 % of total
- 4-OH butyrate (plasma ketone bodies) [3]: 3.44 ± 1.37 mmol/L
- FFA (plasma free fatty acids) [3]: 0.53 ± 0.21 mEq/L
- Body weight gain [4]: 6.23 ± 0.28 g/day
- Hepatic and plasma content of monounsaturated fatty acids (mainly oleic acid) [5]: nearly doubled
- Polyunsaturated fatty acids (mainly linoleic acid and DHA) [5]: decreased
- Glucose infusion rate (GIR) in clamp (FIG. 4) [6]: fully normal
- High fat diet-induced hyperinsulinemia (FIG. 3) [7]: prevents high fat diet-induced hyperinsulinemia
